This assay concerns the target rSe-DSP1 (Se-DSP1; dorsal switch protein 1). The assay is described as follows: thermal shift assay (Protein Thermal Shift dye), melting temperature vs ligand concentration. Further details: species or system Spodoptera exigua. Conditions: 500 ng protein; ligand 0-8 uM; compounds dissolved in DMSO.

What is called Kd is the constant that tells how readily two partners part at equilibrium. As for `CCOc1cc(O)ccc1OC` [3-ethoxy-4-methoxyphenol], the dissociation constant Kd came to 119 ± 20 nM.
With `O=C(O)c1ccccc1O` [salicylic acid], the Kd came out at 238 ± 40 nM.

(Values after paper PMC8023496, “Immune mediation of HMG-like DSP1 via Toll-Spätzle pathway and its specific inhibition by salicylic acid analogs” (PLoS Pathogens, 2021).)
